Reference: patent US9499492B2, “4-(ortho)-fluorophenyl-5-fluoropyrimidin-2-yl amines containing a sulfoximine group” (BAYER PHARMA AKTIENGESELLSCHAFT, priority 2012, dated 2016)
Where two headings read alike, the source gives them in different places.

Experiments:
[1] = test system: MOLM-13 human acute myeloid leukemia cells; assay: Proliferation assay, MOLM-13 (Cell Titre-Glo, Method 3); format: cell-based; settings: MOLM-13, 72-hour exposure, read-out: Inhibition of MOLM-13 cell proliferation IC50
Method: Non-adherent MOLM-13 human acute myeloid leukemia cells (DSMZ ACC 554) were seeded at a density of 5,000 cells/well in a 96-well multititer plate in 100 μL of growth medium supplemented 10% fetal calf serum. After 24 hours, cell viability of one plate (zero-point plate) was determined with the Cell Titre-Glo Luminescent Cell Viability Assay (Promega), while 50 μL of test compound containing medium was added to the wells of the other plates (final concentrations in the range of 0.001-10 μM and DMSO controls; the final concentration of the solvent dimethyl sulfoxide was 0.5%). Cell viability was assessed after 72-hour exposure with the Cell Titre-Glo Luminescent Cell Viability Assay (Promega).

[2] = In vitro metabolic stability in rat hepatocytes (Method 5); format: in vitro ADME, Han Wistar rat; settings: 1 μM test compound
Method: 5. Investigation of In Vitro Metabolic Stability in Rat Hepatocytes
Hepatocytes from Han Wistar rats were isolated via a 2-step perfusion method. After perfusion, the liver was carefully removed from the rat: the liver capsule was opened and the hepatocytes were gently shaken out into a Petri dish with ice-cold Williams medium E (purchased from Sigma Aldrich Life Science, St Louis, Mo.). The resulting cell suspension was filtered through sterile gaze in 50 ml falcon tubes and centrifuged at 50×g for 3 min at room temperature. The cell pellet was resuspended in 30 ml WME and centrifuged through a Percoll® gradient for 2 times at 100×g. The hepatocytes were washed again with Williams' medium E (WMA) and resuspended in medium containing 5% Fetal calf serum (FCS, purchased from Invitrogen, Auckland, NZ). Cell viability was determined by trypan blue exclusion.
For the metabolic stability assay liver cells were distributed in WME containing 5% FCS to glass vials at a density of 1.0×10^6 vital cells/ml. The test compound was added to a final concentration of 1 μM. During incubation, the hepatocyte suspensions were continuously shaken and aliquots were taken at 2, 8, 16, 30, 45 and 90 min, to which equal volumes of cold acetonitrile were immediately added. Samples were frozen at −20° C. over night, after subsequently centrifuged for 15 minutes at 3000 rpm and the supernatant was analyzed with an Agilent 1200 HPLC-system with LCMS/MS detection.
The half-life of a test compound was determined from the concentration-time plot. From the half-life the intrinsic clearances were calculated. Together with the additional parameters liver blood flow, amount of liver cells in vivo and in vitro.

[3] = test system: HeLa, human cervical tumour cells; assay: Proliferation assay, HeLa (Method 3); format: cell-based; settings: 4 days, crystal violet, read-out: Inhibition of HeLa cell proliferation IC50
Method: (§1) After 24 hours, the cells of one plate (zero-point plate) were stained with crystal violet (see below), while the medium of the other plates was replaced by fresh culture medium (200 μl), to which the test substances were added in various concentrations (0 μM, as well as in the range of 0.001-10 μM; the final concentration of the solvent dimethyl sulfoxide was 0.5%). The cells were incubated for 4 days in the presence of test substances. Cell proliferation was determined by staining the cells with crystal violet: the cells were fixed by adding 20 μl/measuring point of an 11% glutaric aldehyde solution for 15 minutes at room temperature. After three washing cycles of the fixed cells with water, the plates were dried at room temperature. The cells were stained by adding 100 μl/measuring point of a 0.1% crystal violet solution (pH 3.0). After three washing cycles of the stained cells with water, the plates were dried at room temperature. The dye was dissolved by adding 100 μl/measuring point of a 10% acetic acid solution. The extinction was determined by photometry at a wavelength of 595 nm. The change of cell number, in percent, was calculated by normalization of the measured values to the extinction values of the zero-point plate (=0%) and the extinction of the untreated (0 μm) cells (=100%).

[4] = test system: A2780, human ovarian carcinoma cells; assay: Proliferation assay, A2780 (Method 3); format: cell-based; settings: A2780, 4 days, crystal violet, read-out: Inhibition of A2780 cell proliferation IC50
Method: as §1

CDK9/CycT1 [5] = target: T1, CDK9/CycT1 (Homo sapiens (Human), UniProt P50750); assay: CDK9/CycT1 kinase assay (Method 1a); format: biochemical; settings: for Selectivity CDK9/CDK2: derived from Methods 1a. and 2.; for IC50: 10 μM ATP
Source text: 1a. CDK9/CycT1 Kinase Assay:
CDK9/CycT1-inhibitory activity of compounds of the present invention was quantified employing the CDK9/CycT1 TR-FRET assay as described in the following paragraphs:
(§2) Recombinant full-length His-tagged human CDK9 and CycT1, expressed in insect cells and purified by Ni-NTA affinity chromatography, were purchased from Invitrogen (Cat. No PV4131). As substrate for the kinase reaction biotinylated peptide biotin-Ttds-[…] (C-terminus in amid form) was used which can be purchased e.g. form the company JERINI Peptide Technologies (Berlin, Germany).
(§3) For the assay 50 nl of a 100 fold concentrated solution of the test compound in DMSO was pipetted into a black low volume 384 well microtiter plate (Greiner Bio-One, Frickenhausen, Germany), 2 μl of a solution of CDK9/CycT1 in aqueous assay buffer [50 mM Tris/HCl pH 8.0, 10 mM MgCl2, 1.0 mM dithiothreitol, 0.1 mM sodium ortho-vanadate, 0.01% (v/v) Nonidet-P40 (Sigma)] were added and the mixture was incubated for 15 min at 22° C. to allow pre-binding of the test compounds to the enzyme before the start of the kinase reaction. […] The concentration of CDK9/CycT1 was adjusted depending of the activity of the enzyme lot and was chosen appropriate to have the assay in the linear range, typical concentrations were in the range of 1 μg/ml.
(§4) The resulting mixture was incubated 1 h at 22° C. to allow the formation of complex between the phosphorylated biotinylated peptide and the detection reagents. Subsequently the amount of phosphorylated substrate was evaluated by measurement of the resonance energy transfer from the Eu-chelate to the streptavidine-XL. Therefore, the fluorescence emissions at 620 nm and 665 nm after excitation at 350 nm was measured in a HTRF reader, e.g. a Rubystar (BMG Labtechnologies, Offenburg, Germany) or a Viewlux (Perkin-Elmer). The ratio of the emissions at 665 nm and at 622 nm was taken as the measure for the amount of phosphorylated substrate.

CDK9/CycT1 [6] = target: T1, CDK9/CycT1; assay: CDK9/CycT1 high ATP kinase assay (Method 1b); format: biochemical; settings: 2 mM ATP
Method: 1b. CDK9/CycT1 High ATP Kinase Assay
CDK9/CycT1-inhibitory activity of compounds of the present invention at a high ATP concentration after preincubation of enzyme and test compounds was quantified employing the CDK9/CycT1 TR-FRET assay as described in the following paragraphs.
as §2, with “were purchase” for “were purchased”, “JERINI peptide technologies” for “JERINI Peptide Technologies”
as §3, with “of 0.5” for “of 1”
as §4

CDK2/CycE = CDK2/CycE (Homo sapiens (Human), UniProt P24941); assay: CDK2/CycE kinase assay (Method 2); format: biochemical; settings: 10 μM ATP
Source text: 2. CDK2/CycE Kinase Assay:
CDK2/CycE-inhibitory activity of compounds of the present invention was quantified employing the CDK2/CycE TR-FRET assay as described in the following paragraphs:
Recombinant fusion proteins of GST and human CDK2 and of GST and human CycE, expressed in insect cells (Sf9) and purified by Glutathion-Sepharose affinity chromatography, were purchased from ProQinase GmbH (Freiburg, Germany). As substrate for the kinase reaction biotinylated peptide biotin-Ttds-[…] (C-terminus in amid form) was used which can be purchased e.g. form the company JERINI Peptide Technologies (Berlin, Germany).
as §3, with “CDK2/CycE” for “CDK9/CycT1”, “130 ng/ml.” for “1 μg/ml.”
as §4, with “TR-FRET” for “HTRF”

T1 sequence (P50750 whole entry): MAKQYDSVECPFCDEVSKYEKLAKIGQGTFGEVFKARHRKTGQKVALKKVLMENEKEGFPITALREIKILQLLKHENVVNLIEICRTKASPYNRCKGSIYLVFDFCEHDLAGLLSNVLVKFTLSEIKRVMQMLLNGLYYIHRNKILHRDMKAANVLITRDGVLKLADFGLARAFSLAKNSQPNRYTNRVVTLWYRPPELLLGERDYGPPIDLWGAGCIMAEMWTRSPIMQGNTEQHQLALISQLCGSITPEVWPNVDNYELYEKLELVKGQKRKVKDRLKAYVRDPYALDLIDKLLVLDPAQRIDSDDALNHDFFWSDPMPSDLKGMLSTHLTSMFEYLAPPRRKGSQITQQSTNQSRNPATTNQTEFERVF
T1 sequence (O60563 whole entry partner): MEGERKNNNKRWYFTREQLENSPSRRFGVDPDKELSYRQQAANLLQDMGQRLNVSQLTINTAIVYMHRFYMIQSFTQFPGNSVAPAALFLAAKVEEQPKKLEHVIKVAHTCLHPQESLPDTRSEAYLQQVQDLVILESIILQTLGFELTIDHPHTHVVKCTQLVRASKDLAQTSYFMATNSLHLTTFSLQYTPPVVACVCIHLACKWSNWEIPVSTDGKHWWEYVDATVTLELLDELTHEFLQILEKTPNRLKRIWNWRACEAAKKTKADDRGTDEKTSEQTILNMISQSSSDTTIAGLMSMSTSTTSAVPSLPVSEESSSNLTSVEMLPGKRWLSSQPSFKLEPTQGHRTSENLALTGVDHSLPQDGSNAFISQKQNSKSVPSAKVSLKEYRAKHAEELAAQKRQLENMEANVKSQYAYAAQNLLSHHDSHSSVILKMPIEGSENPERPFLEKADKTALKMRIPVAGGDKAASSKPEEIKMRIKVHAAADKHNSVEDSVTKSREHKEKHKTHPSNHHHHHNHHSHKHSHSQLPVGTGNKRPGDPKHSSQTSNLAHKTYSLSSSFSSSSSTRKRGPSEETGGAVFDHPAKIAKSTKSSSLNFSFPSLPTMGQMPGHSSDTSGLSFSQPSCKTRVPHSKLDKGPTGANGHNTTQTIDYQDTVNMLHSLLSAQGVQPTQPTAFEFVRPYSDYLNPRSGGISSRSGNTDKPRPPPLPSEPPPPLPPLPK

SMILES | IC50 ([1]; Homo sapiens, MOLM-13, 72 h) [nM] | maximal calculated oral bioavailability (Fmax) based on stability data in rat Hepatocytes [2] [%] | IC50 ([3]; Homo sapiens, 96 h) [nM] | IC50 [4] [nM] | Selectivity CDK9/CDK2 (CDK9/CycT1 [5]) | IC50 [1] [nM] | IC50 [3] [nM] | IC50 (CDK9/CycT1 [6]) [nM] | IC50 ([4]; Homo sapiens, A2780, 96 h) [nM] | IC50 (CDK2/CycE) [nM] | IC50 (CDK9/CycT1 [5]) [nM]
CS(=N)(=O)Cc1cc(Nc2ncc(F)c(-c3ccc(F)cc3F)n2)cc(C(F)(F)F)c1 (single isomer, unassigned) [Example 5, 4-(2,4-Difluorophenyl)-5-fluoro-N-{3-[(S-methylsulfonimidoyl)methyl]-5-(trifluoromethyl)phenyl}pyrimidin-2-amine] | 316 | 77 | 840 | 95 | 72 | – | – | – | – | – | –
CS(=N)(=O)Cc1cc(Nc2ncc(F)c(-c3ccc(F)cc3F)n2)cc(C(F)(F)F)c1 (single isomer, unassigned) [Example 6, 4-(2,4-Difluorophenyl)-5-fluoro-N-{3-[(S-methylsulfonimidoyl)methyl]-5-(trifluoromethyl)phenyl}pyrimidin-2-amine] | – | 71 | – | 300 | 50 | 374 | 950 | – | – | – | –
CS(=O)(Cc1cc(Nc2ncc(F)c(-c3ccc(F)cc3F)n2)cc(S(F)(F)(F)(F)F)c1)=NC#N (single isomer, unassigned) [Example 29, {[3-{[4-(2,4-Difluorophenyl)-5-fluoropyrimidin-2-yl]amino}-5-(pentafluoro-λ^6-sulfanyl)benzyl](methyl)oxido-λ^6-sulfanylidene}cyanamide] | 92 | – | – | – | 198 | – | 178 | 8 | 96 | 940 | 5
CS(=O)(Cc1cc(Nc2ncc(F)c(-c3ccc(F)cc3F)n2)cc(S(F)(F)(F)(F)F)c1)=NC#N (single isomer, unassigned) [Example 30, {[3-{[4-(2,4-Difluorophenyl)-5-fluoropyrimidin-2-yl]amino}-5-(pentafluoro-λ^6-sulfanyl)benzyl](methyl)oxido-λ^6-sulfanylidene}cyanamide] | – | – | – | 167 | 360 | 141 | 359 | 9 | – | 1500 | 4
CS(=N)(=O)Cc1cc(Nc2ncc(F)c(-c3ccc(F)cc3F)n2)cc(S(F)(F)(F)(F)F)c1 (single isomer, unassigned) [Example 31, 4-(2,4-Difluorophenyl)-5-fluoro-N-{3-[(S-methylsulfonimidoyl)methyl]-5-(pentafluoro-λ^6-sulfanyl)phenyl}pyrimidin-2-amine] | 281 | – | 501 | – | 16 | – | – | 7 | 279 | 890 | 54
CS(=N)(=O)Cc1cc(Br)cc(Nc2ncc(F)c(-c3ccc(F)cc3F)n2)c1 (single isomer, unassigned) [Example 42, N-{3-Bromo-5-[(S-methylsulfonimidoyl)methyl]phenyl}-4-(2,4-difluorophenyl)-5-fluoropyrimidin-2-amine] | 946 | – | 1060 | – | 30 | – | – | 334 | 1000 | 470 | 15
